# Assay results as given in US20210308196A1, “COMPOSITIONS AND METHODS TO PROMOTE HOST DEFENSE AND STIMULATE, EXPAND, AND/OR RESET T CELL REPERTOIRES” (EVOLVE BIOSYSTEMS, INC., priority 2018, published 2021).
# Experiments:
# [1] = tested on: IL-1β, IL-2, IL-5, IL-6, IL-8, IL-10, IL-22, IFNγ, TNFα; assay: Fecal cytokines, multiplexed immunoassay (MSD U-PLEX Inflammation Panel 1); assay type: in vivo, human; settings: for IFNγ Median (SD) / IL-1β Median (SD) / IL-2 Median (SD) / IL-5 Median (SD) / IL-6 Median (SD) / IL-8 Median (SD) / IL-10 Median (SD) / IL-22 Median (SD) / TNFα Median (SD): infant feces
# Description: Multiplexed Immunoassays. Interleukin (IL)-1β, IL-2, IL-5, IL-6, IL-8, IL-10, IL-22, interferon (IFN) γ, and tumor necrosis factor (TNF) α were quantified from 80 mg of stool diluted 1:10 in Meso Scale Discovery (MSD; Rockville, Md.) diluent using the U-PLEX Inflammation Panel 1 (human) Kit according to the manufacturer's instructions. Standards and samples were measured in duplicate and blank values were subtracted from all readings. The plate was then read on a Sector Imager 2400 MSD Discovery Workbench analysis software. Statistical Analysis. Demographic differences between Control and EVC001-fed infants was analyzed using Fisher's Exact test for categorical data and Wilcoxon rank sum (Mann-Whitney U) test for continuous data. […] The relationship between fecal calprotectin concentration and % Bifidobacteriaceae was quantified using Spearman's Rho correlation, and the differences in calprotectin concentration between high (>25%) and low (<25%) Bifidobacteriaceae abundance was assessed using the Wilcoxon rank sum test. One subject with abnormally high fecal calprotectin concentration (greater than 3 standard deviations above the mean of both treatment and control data) was considered an extreme outlier and removed from the aforementioned calprotectin analyses. Wilcoxon rank sum tests were performed to assess relative abundance for each bacterial taxa and cytokine concentration differences. For radar plots, medians were adjusted to log scale, then normalized within each cytokine group from 0 to 1. Differences overtime within each cytokine group were evaluated using the Wilcoxon rank sum test. P-values were adjusted using the Bonferroni-Holms method and considered statistically significant if P<0.05. Statistical analyses were applied to determine the significance of global cytokine profile as determined by computing a Bray-Curtis distance metric translated into a principal coordinate analysis and visualized with EMPeror. Global cytokine profile differences by group status were then determined using a permutational multivariate analysis of variance (PERMANOVA), and significant P-values were determined using 999 Monte Carlo permutations. To assess the relationship between the global cytokine profile and the microbiome, we used a Procrustes analysis. The taxonomic operational taxonomic unit (OTU) table at the family level was computed using QIIME, and the cytokine table was used to generate a distance matrix for each, using a weighted UniFrac for 16S and Bray-Curtis for the cytokine. We performed a principal coordinate analysis separately on the two matrices and used a Procrustes analysis as implemented in QIIME to rotate, translate, and scale the matrices. The resulting transformed matrices were plotted using EMPeror. P-values for the Procrustes analysis were generated using Monte Carlo simulations (n=999). Raw correlation statistics were assigned the likelihood of these associations to be true positive associations by computing P-values via a Fisher's Z transform to normalize the distribution of the correlation scores.
# [2] = tested on: fatty acid binding proteins (FABPs) and glutathione S-transferase (α-GST); assay: Urine FABPs and α-GST (MILLIPLEX MAP luminex assay); assay type: in vivo, human; settings: treatment group
# Excerpt: Glutathione S-transferases (α-GST) are enzymes present predominantly in liver, kidney and intestinal epithelial cells that are responsible for detoxification of intracellular toxins through conjugation to glutathione. In states of increased intestinal inflammation and permeability, plasma levels of (α-GST) are a peripheral marker of intestinal epithelial cell injury.
# zonulin = assay: Fecal zonulin ELISA; assay type: in vivo, human; settings: treatment group
# Excerpt: Fecal zonulin concentrations: Zonulin has been described as the main physiological modulator of intercellular tight junction, and increased levels are indicative of increased gut permeability.
# diabetes mellitus = assay: Prevention of type 1 diabetes in NOD mice; assay type: in vivo, mouse; settings: compared to control mice
# Excerpt: Germ-free non-obese diabetic (NOD) mouse pups are weaned 3 weeks after birth and put on a polysaccharide-free diet that contains Vitamin A. As soon as the mouse pups are weaned, they are gavaged with a dysbiotic (no Bifidobacterium sp. and high proteobacteria) human infant microbiome at Day 1 of the experiment. The mice are divided into 4 groups: control, control plus LNnT, B. infantis, and B. infantis plus LNnT. Mice are given the composition for 21 days. All Groups receive B. infantis or a placebo every 3 days by gavage; the LNnT or placebo is added to the drinking water. Additional mice are divided into 2 groups These groups are gavaged with a healthy human infant microbiome (Bifidobacterium species) at day 21 of the experiment. The mice are then either fed placebo or LNnT in their drinking and receive vitamin A in their chow. Mice are monitored for diabetes with weekly tail vein blood glucose measurements and euthanized following two consecutive daily readings of >[…]. […] Plasma is evaluated for cytokines and innate immune factors. Fecal samples are taken every day and evaluated using qPCR and/or 16s and/or shotgun sequencing for microbial colonization. […]
# [3] = Day 40 compared to Day 6, within EVC001-fed infants
# [4] = Day 60 compared to Day 6, within EVC001-fed infants
# [5] = Day 6 (Baseline), before supplementation starts on Day 7
substance,measurement,setting,value
Bifidobacterium longum subsp. infantis EVC001 [B. infantis EVC001],Fecal IFNγ level change over time,[1]; [3],significantly increased
same,Fecal IL-2 level change over time,[1]; [3],significantly lower
same,Fecal IL-5 level change over time,[1]; [3],significantly lower
same,Fecal IL-6 level change over time,[1]; [3],significantly lower
same,Fecal IL-10 level change over time,[1]; [3],significantly lower
same,Fecal IL-22 level change over time,[1]; [3],significantly lower
same,Fecal TNFα level change over time,[1]; [3],significantly lower
same,Fecal IFNγ level change over time,[1]; [4],significantly higher
same,Fecal IL-2 level change over time,[1]; [4],significantly lower
same,Fecal IL-5 level change over time,[1]; [4],significantly lower
same,Fecal IL-6 level change over time,[1]; [4],significantly lower
same,Fecal IL-10 level change over time,[1]; [4],significantly lower
same,Fecal TNFα level change over time,[1]; [4],significantly lower
same,Fecal IL-22 level change over time,"[1]; Day 60 compared to Day 40, within EVC001-fed infants",significantly higher
same,Fecal cytokine levels overall,"[1]; first 60 days postnatal, versus Control infants",significantly lower
same,IFNγ Median (SD),[1]; [5],0.29 pg/mg
same,IL-1β Median (SD),[1]; [5],38.65 pg/mg
same,IL-2 Median (SD),[1]; [5],48.13 pg/mg
same,IL-5 Median (SD),[1]; [5],16.53 pg/mg
same,IL-6 Median (SD),[1]; [5],9.29 pg/mg
same,IL-8 Median (SD),[1]; [5],48.35 pg/mg
same,IL-10 Median (SD),[1]; [5],8.76 pg/mg
same,IL-22 Median (SD),[1]; [5],4.22 pg/mg
same,TNFα Median (SD),[1]; [5],26.71 pg/mg
same,IL-2 Median (SD),[1]; Day 40,3.36 pg/mg
same,IL-5 Median (SD),[1]; Day 40,1.48 pg/mg
same,IL-6 Median (SD),[1]; Day 40,0.48 pg/mg
same,IL-10 Median (SD),[1]; Day 40,0.55 pg/mg
same,TNFα Median (SD),[1]; Day 40,2.7 pg/mg
same,IFNγ Median (SD),[1]; Day 60,26.74 pg/mg
same,IL-1β Median (SD),[1]; Day 60,13.22 pg/mg
same,IL-2 Median (SD),[1]; Day 60,3.16 pg/mg
same,IL-5 Median (SD),[1]; Day 60,1.85 pg/mg
same,IL-6 Median (SD),[1]; Day 60,0.71 pg/mg
same,IL-8 Median (SD),[1]; Day 60,70.13 pg/mg
same,IL-10 Median (SD),[1]; Day 60,0.46 pg/mg
same,IL-22 Median (SD),[1]; Day 60,3.54 pg/mg
same,TNFα Median (SD),[1]; Day 60,3.97 pg/mg
same,Urine levels of FABPs and α-GST,[2],significantly reduced
same,Fecal zonulin concentration,zonulin,significantly reduced
same,Incidence of the development of diabetes mellitus,diabetes mellitus,reduces
